Numbers after ± are expanded uncertainties.
Settings: Liquid, Closed cell (Static) method

FCC(F)(F)F [1,1,1,2-tetrafluoroethane]
vapor or sublimation pressure (258.2 K): 162 ± 5 kPa | vapor or sublimation pressure (262.2 K): 193 ± 5 kPa | vapor or sublimation pressure (272.2 K): 286 ± 5 kPa | vapor or sublimation pressure (282.6 K): 411 ± 5 kPa | vapor or sublimation pressure (292.9 K): 569 ± 5 kPa | vapor or sublimation pressure (302.7 K): 763 ± 6 kPa

FC(F)(F)C1(F)OC1(F)F (stereo unspecified) [2,2,3-trifluoro-3-(trifluoromethyl)oxirane]
vapor or sublimation pressure (273 K): 309 ± 5 kPa | vapor or sublimation pressure (278 K): 366 ± 6 kPa | vapor or sublimation pressure (283 K): 431 ± 6 kPa | vapor or sublimation pressure (288 K): 505 ± 6 kPa | vapor or sublimation pressure (293 K): 588 ± 6 kPa

O=C=O [carbon dioxide]
vapor or sublimation pressure (273 K): 3387 ± 69 kPa | vapor or sublimation pressure (283 K): 4406 ± 89 kPa | vapor or sublimation pressure (293 K): 5627 ± 110 kPa | vapor or sublimation pressure (298.1 K): 6323 ± 130 kPa

FC(F)Cl [chlorodifluoromethane]
vapor or sublimation pressure (273 K): 495 ± 5 kPa | vapor or sublimation pressure (275 K): 528 ± 5 kPa | vapor or sublimation pressure (277 K): 562 ± 5 kPa | vapor or sublimation pressure (279 K): 599 ± 5 kPa | vapor or sublimation pressure (281 K): 637 ± 5 kPa | vapor or sublimation pressure (283 K): 677 ± 5 kPa | vapor or sublimation pressure (285.1 K): 718 ± 6 kPa | vapor or sublimation pressure (286.9 K): 761 ± 6 kPa | vapor or sublimation pressure (289 K): 807 ± 6 kPa | vapor or sublimation pressure (291.1 K): 855 ± 6 kPa | vapor or sublimation pressure (295.1 K): 955 ± 6 kPa

— the NIST ThermoML archive (doi:10.1021/je400919u)
